Measured values published in patent US10073084B2, “Predicting allergic reactions” (priority 2010, dated 2018).
“Also recorded” adds a separate entry of the source. Like-named read-outs stand apart in the source and are kept apart here.

Tests used:
IFN-γ = IFN-γ levels in supernatant of drug treated FastDC co-cultured with autologous cells (FACs); assay type: cell-based, human; conditions: for levels of IFN-γ (in words): FIG. 9
[1] = from publicly available www.sens-it-iv website; cited from earlier work
[2] = tested on: skin biopsy from the same donor; assay: Skin explant assay: histological damage grade, compound-treated DC + autologous T cells + autologous skin; conditions: for Grade I (number of skin explants with this histological grade): Grade I = negative; for Total positive: positive (Grade II-IV) explants / explants tested; for Skin Explant Result (grade observed): Table 3
[3] = tested on: skin biopsy from the same donor
autologous T cells [4] = assay: Modified T cell proliferation assay ([3H] thymidine), drug treated FastDC + autologous T cells; assay type: cell-based, human
autologous T cells [5] = assay: T cell proliferation assay ([3H]-Thymidine), treated DC with autologous T cells (Example 3); assay type: cell-based, human
allogeneic T cells = assay: T cell proliferation assay ([3H]-Thymidine), treated DC with allogeneic T cells (Example 3); assay type: cell-based, human; conditions: FIG. 7C
CD86, CD83 and HLA-DR = assay: Flow cytometric analysis of surface markers on treated monocyte-derived dendritic cells; assay type: cell-based, human; conditions: after 24 hours of treatment, non-sensitizers compared with control cells
[6] = tested on: cAMP-responsive element modulator (CREM); assay: Real-time RT-PCR gene expression in treated dendritic cells: CREM; assay type: cell-based, human; conditions: 3, 6, 11 and 24 h, single donor, FIG. 6
[7] = tested on: chemokine (C-C motif) receptor 2 (CCR2); assay: Real-time RT-PCR gene expression in treated dendritic cells: CCR2; assay type: cell-based, human; conditions: 3, 6, 11 and 24 h, single donor, FIG. 6
[8] = Table 2, concentrations of Table 1
[9] = Table 2, concentrations of Table 1, positive grade
[10] = FIG. 8 / FIG. 10, FastDC treated 24 hours, five days co-culture

## Sc1nc2ccccc2s1 [2Mercp, 2-mercaptobenzothiazole]
IFN-γ; Table 3
  IFNγ Mean: 628.81
[1]
  LLNA Class: Moderate
[2]; [8]
  Grade I (number of skin explants with this histological grade): 1
[2]; [9]
  Grade II (number of skin explants with this histological grade): 1
  Grade III (number of skin explants with this histological grade): 2
[2]; Table 2
  Total positive: 3/4

## CC1(C)S[C@@H]2[C@H](NC(=O)[C@H](N)c3ccc(O)cc3)C(=O)N2[C@H]1C(=O)O [Amoxo, Amoxicillin]
[3]
  Grade IV (number of skin explants with this histological grade): 1
  Total positive: 4/5

## CCOC(=O)c1ccc(N)cc1 [Bz, Benzocaine]
[2]; Table 2
  Total positive: 1/1

## O=CC=Cc1ccccc1 [CINN, Cinnamaldehyde]
IFN-γ; Table 3
  IFNγ Mean: 227.76
[3]; human, 3 days
  Grade I (number of skin explants with this histological grade): 2
  Total positive: 2/4

## C[S+](C)[O-] [DMSO, Dimethyl sulfoxide]
Autologous T cells [4]; [10]
  autologous T cell proliferation (level in words): low
[2]; [8]
  Grade I (number of skin explants with this histological grade): 2
[2]; [9]
  Grade II (number of skin explants with this histological grade): 1
[2]; Table 2
  Total positive: 1/3
[2]
  Skin Explant Result (grade observed): Grade I; also recorded: Grade II

## CN(C)C=O [DMT, Dimethyl formamide]
IFN-γ; Table 3
  IFNγ Mean: 158.59
Autologous T cells [4]; [10]
  autologous T cell proliferation (level in words): low
[2]; [8]
  Grade I (number of skin explants with this histological grade): 3
[2]; Table 2
  Total positive: 0/3
[2]
  Skin Explant Result (grade observed): Grade I

## C=CCc1ccc(O)c(OC)c1 [Eugenol]
IFN-γ; Table 3
  IFNγ Mean: 425.66
Autologous T cells [5]; summary statement, T cell source not stated, not reproducible
  T cell proliferation response versus SDS-treated DC: Two-fold
Autologous T cells [5]; treated DC with autologous T cells, FIG. 7B
  [3H]-Thymidine count relative to SDS and Triton X-100: two-fold
Allogeneic T cells
  difference in counts per minute (CPM) versus SDS: greater than two-fold
CD86, CD83 and HLA-DR
  expression of the markers CD86, CD83 and HLA-DR: reduced peak of expression
[6]
  CREM expression, logarithmic fold change (LFC): up-regulated until 24 hours when it becomes down-regulated
[7]
  CCR2 expression, logarithmic fold change (LFC): down-regulated from 3-11 hours and then is up-regulated at 24 hours
[3]; human, 3 days
  Grade IV (number of skin explants with this histological grade): 1
  Total positive: 5/5

## OCC(O)CO [Gly, Glycerol]
IFN-γ; Table 3
  IFNγ Mean: 144.28
Autologous T cells [4]; [10]
  autologous T cell proliferation (level in words): low
[2]; Table 2
  Total positive: 1/4

## CC(C)O [IP, Isopropanol]
IFN-γ; Table 3
  IFNγ Mean: 207.26
Autologous T cells [4]; [10]
  autologous T cell proliferation (level in words): low
[2]; Table 2
  Total positive: 0/5

## Nc1nnc(-c2cccc(Cl)c2Cl)c(N)n1 [L amot, Lamotrigine]
[2]; [9]
  Grade II (number of skin explants with this histological grade): 1
  Grade III (number of skin explants with this histological grade): 2
  Grade IV (number of skin explants with this histological grade): 1
[2]; Table 2
  Total positive: 4/4

## N[C@@H](CCC(=O)O)C(=O)O [LGA, Glutamic Acid]
IFN-γ; Table 3
  IFNγ Mean: 48.40
Autologous T cells [4]; [10]
  autologous T cell proliferation (level in words): low
[2]; [8]
  Grade I (number of skin explants with this histological grade): 2
[2]; [9]
  Grade II (number of skin explants with this histological grade): 1
[2]; Table 2
  Total positive: 1/3
[2]; listed as LGA (glutamic Acid)
  Skin Explant Result (grade observed): Grade I; also recorded: Grade II

## CN(Cc1cnc2nc(N)nc(N)c2n1)c1ccc(C(=O)N[C@@H](CCC(=O)O)C(=O)O)cc1 [MTX, Methotrexate]
IFN-γ
  levels of IFN-γ (in words): low
Autologous T cells [4]; [10]
  autologous T cell proliferation (level in words): low
[2]; [8]
  Grade I (number of skin explants with this histological grade): 1
[2]; Table 2
  Total positive: 0/1′

## CN(C)C(=N)N=C(N)N [Met, Metformin]
IFN-γ
  levels of IFN-γ (in words): low
Autologous T cells [4]; [10]
  autologous T cell proliferation (level in words): low
[2]; [8]
  Grade I (number of skin explants with this histological grade): 2
[2]; Table 2
  Total positive: 0/2

## NC[C@@H]1O[C@H](O[C@H]2[C@@H](O)[C@H](O[C@@H]3[C@@H](O)[C@H](N)C[C@H](N)[C@H]3O[C@H]3O[C@H](CN)[C@@H](O)[C@H](O)[C@H]3N)O[C@@H]2CO)[C@H](N)[C@@H](O)[C@@H]1O [Neo, Neomycin]
[3]
  Grade I (number of skin explants with this histological grade): 1
  Total positive: 4/5

## CCCCCCCCCCCCOS(=O)(=O)[O-].[Na+] [SDS, Sodium Dodecyl Sulfate]
IFN-γ; Table 3
  IFNγ Mean: 80.33
Autologous T cells [4]; [10]
  autologous T cell proliferation (level in words): low
CD86, CD83 and HLA-DR
  expression of the markers CD86, CD83 and HLA-DR: increase in expression
[6]
  CREM expression, logarithmic fold change (LFC): ~0
[7]
  CCR2 expression, logarithmic fold change (LFC): flipping from a down-regulation to an up-regulation
[3]; human
  Total positive: 3/6

## CCC(C)(C)C(=O)O[C@H]1C[C@@H](C)C=C2C=C[C@H](C)[C@H](CC[C@@H]3C[C@@H](O)CC(=O)O3)[C@H]21 [SimV, Simvastatin]
[2]; [8]
  Grade I (number of skin explants with this histological grade): 2
[2]; [9]
  Grade III (number of skin explants with this histological grade): 1
[2]; Table 2
  Total positive: 1/3

## O=S(=O)([O-])[O-].[Zn+2] [ZnSO4, Zinc Sulphate]
IFN-γ
  IFNγ Mean: 13.39
Autologous T cells [4]
  autologous T cell proliferation (level in words): low
[3]
  Grade I (number of skin explants with this histological grade): 2
  Total positive: 2/4
[1]
  LLNA Class: Non sensitiser

## Penicillin
IFN-γ; Table 3
  IFNγ Mean: 549.25
[1]
  LLNA Class: Weak
[2]; [9]
  Grade II (number of skin explants with this histological grade): 1
  Grade III (number of skin explants with this histological grade): 3
[2]; Table 2
  Total positive: 4/4
[2]; listed as Penicillin G
  Skin Explant Result (grade observed): Grade III; also recorded: Grade II

## Triton-X-100
IFN-γ; Table 3
  IFNγ Mean: 33.54
Autologous T cells [4]; [10]
  autologous T cell proliferation (level in words): low
Allogeneic T cells
  level of incorporation of [3H]-Thymidine: approximately 100,000 CPM
CD86, CD83 and HLA-DR
  expression of the markers CD86, CD83 and HLA-DR: increase in expression
[6]
  CREM expression, logarithmic fold change (LFC): up-regulated for each time point
[7]
  CCR2 expression, logarithmic fold change (LFC): down-regulated after each time period
[3]
  Grade I (number of skin explants with this histological grade): 4
  Skin Explant Result (grade observed): Grade I
  Total positive: 0/4

## Tween 20
IFN-γ; Table 3
  IFNγ Mean: 188.24
Autologous T cells [4]; [10]
  autologous T cell proliferation (level in words): low
[1]
  LLNA Class: Non sensitiser
[2]; [8]
  Grade I (number of skin explants with this histological grade): 2
[2]; Table 2
  Total positive: 0/2
[2]
  Skin Explant Result (grade observed): Grade I
